Earlier results on one compound are cited in PMC4942611, “Promising Tools in Prostate Cancer Research: Selective Non-Steroidal Cytochrome P450 17A1 Inhibitors” (Scientific Reports, 2016).

Read-outs that look alike come from different tables or passages of the source.

In this data set the test system is CYP17A1. More on the design: method as in PMID 24775307. Particulars: cited from earlier work.

Regarding `CC(C)[C@](O)(c1ccc2cc(OC(F)F)c(OC(F)F)cc2c1)c1c[nH]nn1` [VT-464], the IC50 is 670 nM (read-out: IC50 hydroxylase step) and 69 nM (read-out: IC50 lyase step).
